These results are taken from ChEMBL document CHEMBL1122067, “Species- or isozyme-specific enzyme inhibitors. 4. Design of a two-site inhibitor of adenylate kinase with isozyme selectivity” (J Med Chem, 1982).

As usually defined, the Ki is a dissociation constant, usually derived from enzyme kinetics or from competition with a known ligand.

Molecules are shown by their SMILES. Values joined by “and” are separate entries in the source; they are usually repeats but may differ in a detail not shown here. Equal entries are not always repeated.

A short description of test [1]: Non-competitive binding inhibition constant (Ki) of rat adenylate kinase (AK) isozymes was determined.
Test [2] deals with T1, GTP:AMP phosphotransferase AK3, mitochondrial (Rattus norvegicus, UniProt P29411). Put plainly: Competitive binding inhibition constant of rat Adenylate kinase III was determined.
Test [3] can be described thus: Competitive binding inhibition constant (Ki) of rat adenylate kinase (AK) isozymes was determined.
A short description of test [4]: Non competitive binding inhibition constant (Ki) of rat adenylate kinase (AK) isozymes was determined.
For test [5], the target named is T2, Adenylate kinase 2, mitochondrial (Rattus norvegicus, UniProt P29410). Put plainly: Non competitive binding inhibition constant (Ki) of rat adenylate kinase (AK II) isozymes was determined.
Test [6] addresses T1, GTP:AMP phosphotransferase AK3, mitochondrial. The test is described as follows: Non competitive binding inhibition of rat adenylate kinase IIl was determined.
Test [7] shares this target. Put plainly: Competitive binding inhibition constant of rat adenylate kinase IIl was determined.
A short description of test [8]: Non competitive binding inhibition constant(Ki) of rat adenylate kinase (AK) isozymes was determined.
Test [9] has as its target T1, GTP:AMP phosphotransferase AK3, mitochondrial. Put plainly: Non competitive binding inhibition constant of rat aAdenylate kinase III was determined.
A short description of test [10]: Non-competitive binding inhibition constant(Ki) of rat adenylate kinase (AK) isozymes was determined.
In test [11] the target is T2, Adenylate kinase 2, mitochondrial. The test is described as follows: Competitive binding inhibition constant(Ki) of rat adenylate kinase (AK II) isozymes was determined.
Test [12] can be described thus: Ability to inhibit the rat muscle adenylate kinase isozyme in competition with the AMP varied.
The nature of test [13]: Ability to inhibit the rat muscle adenylate kinase isozyme in competition with the ATP varied.
The target in test [14] is T2, Adenylate kinase 2, mitochondrial. The test is described as follows: Ability to inhibit the rat muscle adenylate kinase (AK II) isozyme in competition with the AMP varied. The settings on record: in the assay text read “rat liver” for “rat muscle”.
The target is the same in test [15]. The test is described as follows: Ability to inhibit the rat muscle adenylate kinase (AK II) isozyme in competition with the ATP varied. The settings on record: in the assay text read “rat liver” for “rat muscle”.
Test [16] deals with T1, GTP:AMP phosphotransferase AK3, mitochondrial. Put plainly: Ability to inhibit the rat muscle adenylate kinase lII in competition with the AMP varied. The settings on record: in the assay text read “rat liver adenylate kinase III” for “rat muscle adenylate kinase lII”.
For test [17], the target named is T2, Adenylate kinase 2, mitochondrial. Put plainly: Ability to inhibit the rat muscle adenylate kinase(AK II) isozyme in competition with the AMP varied. The settings on record: in the assay text read “rat liver” for “rat muscle”.
The target is the same in test [18]. Put plainly: Ability to inhibit the rat muscle adenylate kinase(AK II) isozyme in competition with the ATP varied. The settings on record: in the assay text read “rat liver” for “rat muscle”.

T1 sequence (P29411 whole entry): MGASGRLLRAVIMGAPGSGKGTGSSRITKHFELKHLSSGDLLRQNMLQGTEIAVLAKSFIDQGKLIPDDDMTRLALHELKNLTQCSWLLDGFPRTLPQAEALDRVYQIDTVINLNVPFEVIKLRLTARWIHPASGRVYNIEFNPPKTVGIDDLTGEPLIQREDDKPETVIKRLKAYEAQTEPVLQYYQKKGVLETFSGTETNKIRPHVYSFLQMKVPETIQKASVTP

As to `CC(=O)NCCCCCCNc1ncnc2c1ncn2C1O[C@H](COP(=O)(O)OP(=O)(O)OP(=O)(O)O)[C@@H](O)[C@H]1O` (some centres not stated), the results for the Ki in test [1] and in [2] were 12.9 mM and 4.8 mM, respectively.

`CCCCN(CCCC)c1ncnc2c1ncn2C1O[C@H](COP(=O)(O)OP(=O)(O)OP(=O)(O)O)[C@@H](O)[C@H]1O` (some centres not stated): the Ki in test [3] amounted to 2 mM; in test [2], 3 mM.

Regarding `CC(=O)NCCCCCCCCNc1ncnc2c1ncn2C1O[C@H](COP(=O)(O)O)[C@@H](O)[C@H]1O` (some centres not stated), the inhibition constant Ki is 4.8 mM in [4], 12.6 mM in test [5] and 14 mM in test [6].

Turning to `O=C(CI)NCCCCCNc1ncnc2c1ncn2C1O[C@H](COP(=O)(O)OP(=O)(O)OP(=O)(O)O)[C@@H](O)[C@H]1O` (some centres not stated), the Ki is 6 mM in [1] and 6.2 mM in test [7].

Consider `CC(=O)NCCNc1ncnc2c1ncn2C1O[C@H](COP(=O)(O)O)[C@@H](O)[C@H]1O` (some centres not stated), for which the Ki in test [5] was 11.4 mM; in [8] it was 3.1 mM; in test [9], 12.4 mM.

Turning to `CCCSc1nc2c(N)ncnc2n1[C@@H]1O[C@H](COP(=O)(O)OP(=O)(O)OP(=O)(O)O)[C@@H](O)[C@H]1O`, the results for the Ki in test [10], in test [11] and in test [2] were 6.2 mM, 0.06 mM and 0.07 mM, respectively.

Consider `Nc1ncnc2c1nc(Sc1ccccc1)n2[C@@H]1O[C@H](COP(=O)(O)OP(=O)(O)OP(=O)(O)O)[C@@H](O)[C@H]1O`, for which the Ki in test [1] was 4 mM; in test [2] it was 0.32 mM.

For `Nc1ncnc2c1ncn2[C@@H]1O[C@H](COP(=O)(O)OP(=O)(O)OP(=O)(O)OP(=O)(O)OP(=O)(O)OC[C@H]2O[C@@H](n3cnc4c(N)ncnc43)[C@H](O)[C@@H]2O)[C@@H](O)[C@H]1O`, the Inhibition constant in test [12] amounted to 0.26 µM; in test [13] it was 0.26 µM; in [14], 0.28 µM; in test [15], 0.3 µM; in [16], 0.3 µM.

For the compound `CCSc1nc2c(N)ncnc2n1C1O[C@H](COP(=O)(O)OP(=O)(O)OP(=O)(O)OP(=O)(O)OP(=O)(O)OC[C@H]2OC(n3cnc4c(N)ncnc43)[C@H](O)[C@@H]2O)[C@@H](O)[C@H]1O` (some centres not stated), the Inhibition constant in [12] is 3.5 µM; in [13], 3 µM; in test [17], 0.06 µM; in [18], 0.08 µM; in test [16] it was 0.08 µM and 0.07 µM.
